Consider twelve compounds from patent US5436369A, “Alicyclic phospholipase A2 inhibitors” (Bristol-Myers Squibb Company, priority 1994, dated 1995).

The target of the first assay is T1, PLA2 (Homo sapiens, UniProt P14555).
T1 construct: The enzyme is isolated from human platelets; from tissue; host or cells: human platelets
T1 sequence (P14555 21-144): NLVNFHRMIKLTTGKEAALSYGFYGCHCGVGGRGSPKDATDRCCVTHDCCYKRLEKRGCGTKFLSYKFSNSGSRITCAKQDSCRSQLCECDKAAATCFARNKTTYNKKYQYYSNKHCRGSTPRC
The experiment in a line: PLA2 Inhibition Assay (14C-oleate labeled E. coli membrane substrate). The format is biochemical. Conditions: Table 2, Structure 14 (Type IA); 100 μM; enzyme isolated from human platelets. On the procedure: The method used is similar to that reported by Franson, et al. [Jesse, R. L. and Franson R. C., Biochim. Biophys. Acta 575:467-470 (1979); Franson, R. C., Patriarca, P., and Elsback, P., J. Lipid Res. 15: 380-388 (1974)]. The enzyme is isolated from human platelets. The substrate used consists of ^14 C-oleate labeled Escherichia coli membranes. E. coli cells are grown in the presence of ^14 C-oleic acid and then autoclaved to prepare the membranes.
Various concentrations of test compounds are pre-incubated with PLA2 (3.6 μg/mL in a buffer consisting of 25 mM HEPES (pH 7)), 150 mM NaCl, 5.0 mM CaCl2, and 10% DMSO (v/v, test compound solvent) at 37° C. for 7 minutes. The E. coli membrane substrate is then added (0.1 mM phospholipid, 0.005 μCi ^14 C) and the reaction is then incubated at 37° C. for 30 minutes. The reaction is then terminated by the addition of 1.9 mL tetrahydrofuran (THF), and the entire solution is applied to a solid-phase extraction column (aminopropyl resin, Analytichem). The column is rinsed with an additional 1 mL of THF. The free fatty acid product of the reaction is then eluted from the column with 1 mL of 2% acetic acid in THF and collected in a scintillation vial. The amount of free fatty acid product is determined by liquid scintillation counting. The amount of inhibition produced by the test compound is calculated by comparing the counts obtained in the presence of the compound to those obtained in its absence (solvent only). Background counts were determined by performing incubations in the absence of enzyme.
Percent inhibition is determined by the equation: [formula]
Regarding `COc1cc(CC/C=C(/C=C\C(=O)O)c2ccccc2)ccc1C12CC3CC(CC(C3)C1)C2` [Structure 14n, (2Z),(4Z)-4-Phenyl-7-[4-(1-adamantyl)-3-methoxyphenyl]-2,4-heptadienoicacid], the inhibition at 100 µM came out at 100%.

`COc1ccc(CC/C=C(/C=C\C(=O)O)c2cccc(C(F)(F)F)c2)c(C23CC4CC(CC(C4)C2)C3)c1` [Structure 14o, (2Z),(4Z)-4-(3-Trifluoromethylphenyl)-7-[2-(1-adamantyl)-4-methoxyphenyl]-2,4-heptadienoic acid] gave an inhibition at 100 µM of 99%.

As to `COc1cc(/C=C(/C=C\C(=O)O)c2cccc(C(F)(F)F)c2)ccc1C12CC3CC(CC(C3)C1)C2` [Structure 14p, (2Z),(4Z)-4-(3-Trifluoromethylphenyl)-5-[-4-(1-adamantyl)-3-methoxyphenyl]-2,4-pentadienoic acid], testing at 100 µM gave an inhibition of 93%. Consider `O=C(O)/C=C\C(=C\CCc1ccc(C23CC4CC(CC(C4)C2)C3)c(O)c1)c1cccc(C(F)(F)F)c1` [Structure 14q, (2Z),(4Z)-4-(3-Trifluoromethylphenyl)-7-[4-(1-adamantyl)-3-hydroxyphenyl]-2,4-heptadienoic acid], for which the inhibition at 100 µM was 100%. `CCCCCOc1cc(CC/C=C(/C=C\C(=O)O)c2cccc(C(F)(F)F)c2)ccc1C12CC3CC(CC(C3)C1)C2` [Structure 14r, (2Z),(4Z)-4-(3-Trifluoromethylphenyl)-7-[4-(1-adamantyl)-3-pentyloxyphenyl]-2,4-heptadienoic acid] displayed an inhibition at 100 µM of 95%. On to `O=C(O)/C=C\C(=C\CCc1ccc(C23CC4CC(CC(C4)C2)C3)c(OCc2cc(F)cc(F)c2)c1)c1cccc(C(F)(F)F)c1` [Structure 14s, (2Z),(4Z)-4-(3-Trifluoromethylphenyl)-7-[4-(1-adamantyl)-3-(3,5-difluorobenzyloxy)phenyl]-2,4-heptadienoic acid], for which the inhibition at 100 µM was found to be 100%. Same read-out and setting: then `COc1ccc(COc2cc(CC/C=C(/C=C\C(=O)O)c3cccc(C(F)(F)F)c3)ccc2C23CC4CC(CC(C4)C2)C3)cc1` [Structure 14t, (2Z),(4Z)-4-(3-Trifluoromethylphenyl)-7-[4-(1-adamantyl)-3-(4-methoxybenzyloxy)phenyl]-2,4-heptadienoic acid], with 100%; and `O=C(O)/C=C\C(=C\CCc1ccc(C23CC4CC(CC(C4)C2)C3)c(OCc2ccccc2)c1)c1cccc(C(F)(F)F)c1` [Structure 14u, (2Z),(4Z)-4-(3-Trifluoromethylphenyl)-7-[4-(1-adamantyl)-3-benzyloxyphenyl]-2,4-heptadienoic acid], with 100%; and `O=C(O)/C=C\C(=C\CCc1ccc(C23CC4CC(CC(C4)C2)C3)c(OCC(=O)O)c1)c1cccc(C(F)(F)F)c1` [Structure 14v, (2Z),(4Z)-4-(3-Trifluoromethylphenyl)-7-[4-(1-adamantyl)-3-(carboxymethoxy)phenyl]-2,4-heptadienoic acid], with 100%.

The assay is the same for the next values; noted with them: Table 3, Structure 18 (Type IB); 100 μM; enzyme isolated from human platelets.
On to `CC1(C)CCC(C)(C)c2cc(/C=C(/C=C/C(=O)O)c3cccc(C(=O)O)c3)ccc21` [Structure 18a, (2E),(4Z)-4-(3-Carboxyphenyl)-5-(5,6,7,8-tetrahydro-5,5,8,8-tetramethyl-2-naphthalenyl)-2,4-pentadienoic acid], for which the inhibition at 100 µM was 27%. Turning to `CC1(C)CCC(C)(C)c2cc3cc(/C=C(/C=C/C(=O)O)c4cccc(C(=O)O)c4)ccc3cc21` [Structure 18b, (2E),(4Z)-4-(3-Carboxyphenyl)-5-(5,6,7,8-tetrahydro-5,5,8,8-tetramethyl-2-anthracenyl)-2,4-pentadienoic acid], the inhibition at 100 µM was 100%. Still for that read-out and setting: then `CCCCCOc1ccc(/C=C(/C=C/C(=O)O)c2cccc(C(=O)O)c2)cc1OCCCCC` [Structure 18c, (2E),(4Z)-4-(3-Carboxyphenyl)-5-(3,4-bispentyloxyphenyl)-2,4-pentadienoic acid], with 70%.

Usually inhibition stands for the relative decrease from the control value, in per cent. Lower therefore signals a weak effect.
